Source: patent EP3932409A1 (priority 2020, dated 2022)

Columns and labels:
229E-GFP = test: microbe, parasite or virus in culture; type: cell-based, human coronavirus; settings: for EC90 / EC50: 72 h; for EC50: read-out: ECso; for infection by 229E-GFP: result in words, micromolar concentrations
SARS-CoV-2 [1] = test: SARS-CoV-2 cell monolayer protection assay; type: cell-based, SARS-CoV-2 strain NL/2020; settings: Severe acute respiratory syndrome coronavirus 2, Vero C1008, 72 h; for EC100: read-out: concentration protecting completely / around 100% of the cell monolayer
SARS-CoV-2 [2] = type: cell-based, SARS-CoV-2 strain NL/2020
SARS-CoV-2 [3] = test: Intracellular viral RNA quantitation (RT-qPCR), with time of addition; type: cell-based, SARS-CoV-2 strain NL/2020
[4] = test system: retroviral vectors pseudotyped with SARS-CoV-2 Spike protein (SARS2pp); test: microbe, parasite or virus in culture; type: cell-based; settings: Severe acute respiratory syndrome coronavirus 2, Vero C1008, 48 h
Vero-E6 cells = settings: uninfected Vero-E6 cells, 200 to 3.125 µM, crystal violet
in vitro = settings: human, huh7-lunet#3 cells

Compound	EC90 (229E-GFP) [µM]	EC50 (229E-GFP) [µM]	infection by 229E-GFP (229E-GFP)	EC50 (SARS-CoV-2 [1]) [µM]	EC100 (SARS-CoV-2 [1]) [µM]	progeny virus production (TCID50) (SARS-CoV-2 [2])	viral RNA accumulation (SARS-CoV-2 [3])	EC50 [4] [µM]	cytotoxicity in Vero-E6 cells (Vero-E6 cells)	CC50 at 72 h (in vitro) [µM]
CC[C@H]1OC(=O)[C@H](C)[C@@H](O[C@H]2C[C@@](C)(OC)[C@@H](O)[C@H](C)O2)[C@H](C)[C@@H](O[C@@H]2O[C@H](C)C[C@H](N(C)C)[C@H]2O)[C@](C)(O)C[C@@H](C)CN(C)[C@H](C)[C@@H](O)[C@]1(C)O [Azithromycin]	18.8 ± 2.5	6.1 ± 2.4	blocked viral infection	75	200	undetectable levels	significantly reduced viral RNA accumulation in a dose dependent manner	~30	not toxic at any of the tested concentrations	> 50
CO/N=C(\C(=O)N[C@@H]1C(=O)N2C(C(=O)O)=C(COC(N)=O)CS[C@H]12)c1ccco1 [Cefuroxime]	> 50	> 50	not significantly affected	–	–	–	–	–	–	> 50
CC[C@H]1OC(=O)[C@H](C)[C@@H](O[C@H]2C[C@@](C)(OC)[C@@H](O)[C@H](C)O2)[C@H](C)[C@@H](O[C@@H]2O[C@H](C)C[C@H](N(C)C)[C@H]2O)[C@](C)(OC)C[C@@H](C)C(=O)[C@H](C)[C@@H](O)[C@]1(C)O [Clarithromycin]	46.3 ± 4.8	17.3 ± 9.2	blocked viral infection	60	100	undetectable levels	significantly reduced viral RNA accumulation in a dose dependent manner	~30	–	> 50
CC[C@H]1OC(=O)[C@H](C)[C@@H](O[C@H]2C[C@@](C)(OC)[C@@H](O)[C@H](C)O2)[C@H](C)[C@@H](O[C@@H]2O[C@H](C)C[C@H](N(C)C)[C@H]2O)[C@](C)(O)C[C@@H](C)C(=O)[C@H](C)[C@@H](O)[C@]1(C)O [Erithromycin, Erythromycin]	> 50	> 50	not significantly affected	–	–	–	–	–	–	> 50
CC[C@H]1OC(=O)[C@H](C)[C@@H](O[C@H]2C[C@@](C)(OC)[C@@H](O)[C@H](C)O2)[C@H](C)[C@@H](O[C@@H]2O[C@H](C)C[C@H](N(C)C)[C@H]2O)[C@](C)(O)C[C@@H](C)/C(=N\OC)[C@H](C)[C@@H](O)[C@]1(C)O [Lexithromycin]	16.3 ± 6	3 ± 1.4	blocked viral infection	25	50	undetectable levels	significantly reduced viral RNA accumulation in a dose dependent manner	~18	the most toxic compound	> 50
